# Key:
# [1] = target: Ba/F3 EGFR-Del19/T790M/C797S (Homo sapiens, UniProt P00533, T790M/C797S, cells depend on it, form not given); assay: Ba/F3 viability assay (CellTiter-Glo), DTC; type: cell-based; details: anti-proliferation, read-out: BaF3 DTC IC50
# In short: (§1)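 Antiproliferative activity is assessed through a cell viability read-out, run in parallel across the mutant-EGFR-driven and parental Ba/F3 cells.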
# EGFR^L858R = EGFR^L858R (Homo sapiens, UniProt P00533, L858R); assay: in vitro kinase assay (HTRF KinEASE-TK kit), L; type: biochemical; details: kinase inhibition
# Sequence of EGFR^L858R (P00533 25-1210 L858R): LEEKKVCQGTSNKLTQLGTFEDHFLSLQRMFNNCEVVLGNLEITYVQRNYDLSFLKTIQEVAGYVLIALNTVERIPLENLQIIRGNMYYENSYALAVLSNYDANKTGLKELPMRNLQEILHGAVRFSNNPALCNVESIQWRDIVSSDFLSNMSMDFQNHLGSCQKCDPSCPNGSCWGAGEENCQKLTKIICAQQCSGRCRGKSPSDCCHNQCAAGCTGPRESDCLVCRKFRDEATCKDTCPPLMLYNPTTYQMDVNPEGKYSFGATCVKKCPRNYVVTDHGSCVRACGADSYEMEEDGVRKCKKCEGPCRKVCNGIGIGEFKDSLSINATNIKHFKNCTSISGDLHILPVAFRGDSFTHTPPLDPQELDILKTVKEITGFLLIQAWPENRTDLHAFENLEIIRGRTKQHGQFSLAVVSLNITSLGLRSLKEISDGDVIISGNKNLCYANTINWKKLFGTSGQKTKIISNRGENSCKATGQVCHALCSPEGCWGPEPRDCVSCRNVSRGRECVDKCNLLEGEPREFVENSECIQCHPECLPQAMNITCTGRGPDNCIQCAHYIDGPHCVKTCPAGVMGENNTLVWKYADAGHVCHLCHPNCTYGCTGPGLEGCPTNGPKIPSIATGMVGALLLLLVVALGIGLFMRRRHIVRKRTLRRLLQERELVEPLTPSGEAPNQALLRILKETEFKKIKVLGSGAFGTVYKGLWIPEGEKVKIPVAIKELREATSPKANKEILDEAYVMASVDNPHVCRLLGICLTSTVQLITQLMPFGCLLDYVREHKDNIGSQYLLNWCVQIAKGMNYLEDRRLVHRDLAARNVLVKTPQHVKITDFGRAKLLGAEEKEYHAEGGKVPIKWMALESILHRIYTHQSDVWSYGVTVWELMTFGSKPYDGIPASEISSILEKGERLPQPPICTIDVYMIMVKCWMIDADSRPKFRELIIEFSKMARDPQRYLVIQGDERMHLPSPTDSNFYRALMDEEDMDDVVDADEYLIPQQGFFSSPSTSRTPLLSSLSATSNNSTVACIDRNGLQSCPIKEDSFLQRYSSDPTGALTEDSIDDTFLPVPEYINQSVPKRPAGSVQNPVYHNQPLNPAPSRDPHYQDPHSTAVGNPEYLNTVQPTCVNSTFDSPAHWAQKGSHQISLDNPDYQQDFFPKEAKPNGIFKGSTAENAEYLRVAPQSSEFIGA
# Description: (§2) Assays using an in vitro kinase assay kit (HTRF KinEASE-TK kit) can be used to study the inhibitory activity of compounds described herein with respect to EGFR mutants such as EGFR^L858R, EGFR^L58R/T790M, and EGFR^L858R/T790M/C^797S.
# Ba/F3 Parental = assay: Ba/F3 viability assay (CellTiter-Glo), parental; type: cell-based; details: Mus musculus, BaF3, anti-proliferation
# In short: as §1
# EGFR^L858R/T790M/C^797S = EGFR^L858R/T790M/C^797S (Homo sapiens, UniProt P00533, C797S/L858R/T790M); assay: in vitro kinase assay (HTRF KinEASE-TK kit), LTC; type: biochemical; details: kinase inhibition
# Sequence of EGFR^L858R/T790M/C^797S (P00533 25-1210 T790M/C797S/L858R): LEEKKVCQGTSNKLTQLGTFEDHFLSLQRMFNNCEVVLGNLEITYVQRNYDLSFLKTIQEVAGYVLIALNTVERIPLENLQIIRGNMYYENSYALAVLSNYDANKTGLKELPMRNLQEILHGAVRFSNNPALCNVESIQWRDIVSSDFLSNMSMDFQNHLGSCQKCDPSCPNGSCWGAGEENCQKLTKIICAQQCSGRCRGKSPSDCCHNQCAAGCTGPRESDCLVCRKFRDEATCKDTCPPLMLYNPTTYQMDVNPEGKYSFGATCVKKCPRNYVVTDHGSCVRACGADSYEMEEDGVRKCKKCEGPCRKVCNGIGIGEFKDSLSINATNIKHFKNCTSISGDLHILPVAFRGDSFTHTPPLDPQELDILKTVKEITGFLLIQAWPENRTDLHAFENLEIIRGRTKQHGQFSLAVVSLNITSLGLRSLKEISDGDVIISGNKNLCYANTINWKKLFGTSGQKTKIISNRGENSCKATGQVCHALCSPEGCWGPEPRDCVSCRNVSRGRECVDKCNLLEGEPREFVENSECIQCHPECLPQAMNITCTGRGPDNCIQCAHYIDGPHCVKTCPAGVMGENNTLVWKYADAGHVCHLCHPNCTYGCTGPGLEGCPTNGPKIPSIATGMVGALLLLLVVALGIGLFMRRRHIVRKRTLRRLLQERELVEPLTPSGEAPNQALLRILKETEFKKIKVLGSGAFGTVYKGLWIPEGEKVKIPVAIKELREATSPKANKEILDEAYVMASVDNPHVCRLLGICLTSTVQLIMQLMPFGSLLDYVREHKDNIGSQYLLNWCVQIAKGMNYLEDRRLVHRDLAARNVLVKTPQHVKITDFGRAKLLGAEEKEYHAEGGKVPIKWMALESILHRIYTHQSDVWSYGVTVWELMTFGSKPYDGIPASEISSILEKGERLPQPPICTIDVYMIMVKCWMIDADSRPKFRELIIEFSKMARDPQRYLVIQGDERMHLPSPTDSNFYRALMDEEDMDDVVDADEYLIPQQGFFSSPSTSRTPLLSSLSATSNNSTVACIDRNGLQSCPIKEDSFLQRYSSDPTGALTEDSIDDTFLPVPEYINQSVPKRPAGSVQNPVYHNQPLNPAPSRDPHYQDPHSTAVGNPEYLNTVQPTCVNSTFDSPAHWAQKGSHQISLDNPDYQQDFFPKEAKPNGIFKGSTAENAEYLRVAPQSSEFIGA
# Description: as §2
# Ba/F3 EGFR-Del19/C797S = Ba/F3 EGFR-Del19/C797S (Homo sapiens, UniProt P00533, C797S, cells depend on it, form not given); assay: Ba/F3 viability assay (CellTiter-Glo), DC; type: cell-based; details: anti-proliferation, read-out: BaF3 DC IC50
# In short: as §1
# EGFR^L58R/T790M = EGFR^L58R/T790M (Homo sapiens, UniProt P00533, L858R/T790M); assay: in vitro kinase assay (HTRF KinEASE-TK kit), LT; type: biochemical; details: kinase inhibition
# Description: as §2
# Ba/F3 EGFR-Del19/T790M = Ba/F3 EGFR-Del19/T790M (Homo sapiens, UniProt P00533, T790M, cells depend on it, form not given); assay: Ba/F3 viability assay (CellTiter-Glo), DT; type: cell-based; details: anti-proliferation, read-out: BaF3 DT IC50
# Sequence of Ba/F3 EGFR-Del19/T790M (P00533 with tags, fused parts or gaps DEL746-750/T790M, form open): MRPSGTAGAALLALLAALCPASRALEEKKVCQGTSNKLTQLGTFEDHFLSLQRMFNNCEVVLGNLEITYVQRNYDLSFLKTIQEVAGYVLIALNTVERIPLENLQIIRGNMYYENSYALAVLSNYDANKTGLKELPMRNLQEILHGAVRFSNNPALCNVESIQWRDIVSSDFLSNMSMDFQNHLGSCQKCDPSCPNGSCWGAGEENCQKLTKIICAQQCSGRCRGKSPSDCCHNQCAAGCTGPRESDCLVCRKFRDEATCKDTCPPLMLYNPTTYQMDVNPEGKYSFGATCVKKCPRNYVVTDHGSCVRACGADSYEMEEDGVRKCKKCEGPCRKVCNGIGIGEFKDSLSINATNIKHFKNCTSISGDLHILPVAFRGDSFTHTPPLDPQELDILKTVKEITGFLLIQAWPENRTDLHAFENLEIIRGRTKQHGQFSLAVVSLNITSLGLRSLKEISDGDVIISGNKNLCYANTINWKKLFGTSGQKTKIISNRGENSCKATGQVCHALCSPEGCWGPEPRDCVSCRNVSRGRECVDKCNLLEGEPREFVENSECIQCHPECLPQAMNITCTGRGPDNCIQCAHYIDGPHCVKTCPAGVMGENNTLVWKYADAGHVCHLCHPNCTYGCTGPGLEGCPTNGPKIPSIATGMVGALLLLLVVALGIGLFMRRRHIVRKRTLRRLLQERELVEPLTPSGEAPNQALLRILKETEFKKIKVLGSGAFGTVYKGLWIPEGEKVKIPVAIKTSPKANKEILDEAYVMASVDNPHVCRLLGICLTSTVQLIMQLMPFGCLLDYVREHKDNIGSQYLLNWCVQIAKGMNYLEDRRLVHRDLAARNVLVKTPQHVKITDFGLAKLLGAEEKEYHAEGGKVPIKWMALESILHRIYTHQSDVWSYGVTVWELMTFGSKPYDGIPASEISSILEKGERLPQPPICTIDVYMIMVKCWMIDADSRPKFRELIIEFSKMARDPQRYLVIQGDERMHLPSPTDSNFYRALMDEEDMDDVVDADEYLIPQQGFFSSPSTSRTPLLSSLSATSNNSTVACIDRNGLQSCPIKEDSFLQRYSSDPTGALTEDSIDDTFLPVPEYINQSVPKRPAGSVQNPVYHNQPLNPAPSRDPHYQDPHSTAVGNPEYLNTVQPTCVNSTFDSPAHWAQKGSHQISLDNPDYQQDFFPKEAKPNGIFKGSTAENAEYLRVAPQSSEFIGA
# In short: as §1
# Sequence of Ba/F3 EGFR-Del19/T790M/C797S (P00533 with tags, fused parts or gaps DEL746-750/T790M/C797S, form open): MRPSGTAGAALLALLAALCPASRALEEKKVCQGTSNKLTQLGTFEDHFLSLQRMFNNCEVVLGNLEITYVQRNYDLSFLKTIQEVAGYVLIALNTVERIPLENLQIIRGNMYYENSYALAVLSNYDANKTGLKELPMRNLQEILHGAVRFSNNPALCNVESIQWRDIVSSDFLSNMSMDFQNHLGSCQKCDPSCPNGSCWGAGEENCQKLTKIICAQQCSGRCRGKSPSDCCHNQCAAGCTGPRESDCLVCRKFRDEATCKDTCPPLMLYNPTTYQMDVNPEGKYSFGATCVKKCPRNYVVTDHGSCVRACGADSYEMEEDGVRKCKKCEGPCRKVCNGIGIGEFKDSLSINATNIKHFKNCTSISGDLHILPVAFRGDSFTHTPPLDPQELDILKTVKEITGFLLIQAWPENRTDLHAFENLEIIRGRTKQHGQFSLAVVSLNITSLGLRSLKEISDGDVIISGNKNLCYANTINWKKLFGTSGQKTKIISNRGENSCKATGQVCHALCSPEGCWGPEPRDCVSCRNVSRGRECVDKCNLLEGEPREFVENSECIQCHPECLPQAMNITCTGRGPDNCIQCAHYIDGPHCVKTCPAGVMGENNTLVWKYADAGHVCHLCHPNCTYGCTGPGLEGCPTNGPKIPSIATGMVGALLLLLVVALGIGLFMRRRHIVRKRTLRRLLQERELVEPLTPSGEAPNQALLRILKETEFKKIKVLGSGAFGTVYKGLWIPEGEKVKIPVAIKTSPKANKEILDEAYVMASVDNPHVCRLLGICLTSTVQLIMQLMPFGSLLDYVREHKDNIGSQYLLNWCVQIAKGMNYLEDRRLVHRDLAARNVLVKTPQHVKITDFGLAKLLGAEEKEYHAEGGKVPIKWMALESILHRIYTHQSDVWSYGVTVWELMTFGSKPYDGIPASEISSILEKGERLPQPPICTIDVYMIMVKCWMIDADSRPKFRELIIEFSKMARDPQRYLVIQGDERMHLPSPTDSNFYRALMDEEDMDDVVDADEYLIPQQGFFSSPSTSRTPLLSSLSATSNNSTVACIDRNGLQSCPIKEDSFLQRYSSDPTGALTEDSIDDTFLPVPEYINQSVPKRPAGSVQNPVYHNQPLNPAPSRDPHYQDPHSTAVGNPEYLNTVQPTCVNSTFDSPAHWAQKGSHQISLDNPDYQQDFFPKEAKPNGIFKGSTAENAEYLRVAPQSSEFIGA
SMILES,GI50 [1],IC50 (EGFR^L858R),IC50 (Ba/F3 Parental),IC50 (EGFR^L858R/T790M/C^797S),GI50 (Ba/F3 EGFR-Del19/C797S),IC50 (EGFR^L58R/T790M),GI50 (Ba/F3 EGFR-Del19/T790M)
COCCN(C)Cc1ccc(-c2nn3c4cc(ncc24)Nc2ccnc(n2)-c2cnn(C)c2OCC[C@@H]3C)n1C [(136)],< 10 nM,< 10 nM,100 to 1000 nM,< 10 nM,< 10 nM,< 10 nM,< 10 nM
CC1CCCOc2c(cnn2C)-c2nccc(n2)Nc2cc3c(cn2)c(N2CCCC2)nn31 (centres unmarked) [(71)],10 to 100 nM,< 10 nM,100 to 1000 nM,< 10 nM,10 to 100 nM,< 10 nM,10 to 100 nM
CCn1cc(-c2nn3c4cc(ncc24)Nc2ccnc(n2)-c2cnn(C)c2OCC[C@@H]3C)cc1CN1CCN(C)CC1 [(146)],< 10 nM,< 10 nM,100 to 1000 nM,< 10 nM,< 10 nM,< 10 nM,< 10 nM
CC(C)N1CCN(CC2CCN(c3nn4c5cc(ncc35)Nc3ccnc(n3)-c3cnn(C)c3OCC[C@@H]4C)C2)CC1 (some centres unmarked) [(93)],< 10 nM,< 10 nM,10 to 100 nM,< 10 nM,< 10 nM,< 10 nM,< 10 nM
CCn1cc(-c2nn3c4cc(ncc24)Nc2ccnc(n2)-c2cnn(C)c2OCC[C@@H]3C)cc1CN(C)C [(156)],< 10 nM,< 10 nM,100 to 1000 nM,< 10 nM,< 10 nM,< 10 nM,< 10 nM
C[C@H]1CCOc2c(cnn2C)-c2nccc(n2)Nc2cc3c(cn2)c(-c2ccc(CN4CCN(CCCF)CC4)n2C)nn31 [(190)],< 10 nM,< 10 nM,100 to 1000 nM,< 10 nM,< 10 nM,< 10 nM,< 10 nM
CC(C)N1CCN(Cc2ccc(-c3nn4c5cc(ncc35)Nc3ccnc(n3)-c3cnn(C)c3OCC[C@@H]4C)n2C)CC1 [(122)],< 10 nM,< 10 nM,100 to 1000 nM,< 10 nM,< 10 nM,< 10 nM,< 10 nM
C[C@H]1CCOc2c(cnn2C)-c2nccc(n2)Nc2cc3c(cn2)c(-c2ccc(CN4CCCC4)n2C)nn31 [(140)],< 10 nM,< 10 nM,100 to 1000 nM,< 10 nM,< 10 nM,< 10 nM,< 10 nM
CCCn1cc(-c2nn3c4cc(ncc24)Nc2ccnc(n2)-c2cnn(C)c2OCC[C@@H]3C)cc1CN1CCOCC1 [(152)],< 10 nM,< 10 nM,100 to 1000 nM,< 10 nM,< 10 nM,< 10 nM,< 10 nM
CCN1CCC(Oc2cc(F)cc(-c3nn4c5cc(ncc35)Nc3ccnc(n3)-c3cnn(C)c3OCC[C@@H]4C)c2)CC1 [(128)],10 to 100 nM,10 to 100 nM,100 to 1000 nM,< 10 nM,10 to 100 nM,< 10 nM,10 to 100 nM
C[C@H]1CCOc2c(cnn2C)-c2nccc(n2)Nc2cc3c(cn2)c(-c2cccc(N4CCC(O)CC4)c2)nn31 [(111)],< 10 nM,< 10 nM,100 to 1000 nM,< 10 nM,10 to 100 nM,< 10 nM,< 10 nM
CCN(CC)C1CCN(c2cc(F)cc(-c3nn4c5cc(ncc35)Nc3ccnc(n3)-c3cnn(C)c3OCC[C@@H]4C)c2)CC1 [(141)],10 to 100 nM,< 10 nM,100 to 1000 nM,< 10 nM,10 to 100 nM,< 10 nM,10 to 100 nM
C[C@H]1CCOc2c(cnn2C)-c2nccc(n2)Nc2cc3c(cn2)c(-c2ccc(F)c(OCCN4CCOCC4)c2)nn31 [(154)],< 10 nM,< 10 nM,100 to 1000 nM,< 10 nM,10 to 100 nM,< 10 nM,10 to 100 nM
"CC1CCOc2ccncc2-c2nccc(n2)Nc2cc3c(cn2)c(N2CCC2)nn31 (centres unmarked) [(14), 20-(azetidin-1-yl)-17-methyl-14-oxa-2,6,10,18,19,23,26-heptazapentacyclo[16.5.2.13,7.08,13.021,25]hexacosa-1(23),3,5,7(26),8(13),9,11,19,21,24-decaene]",< 10 nM,< 10 nM,10 to 100 nM,< 10 nM,< 10 nM,< 10 nM,< 10 nM
CC1CCCOc2c(cnn2C)-c2nccc(n2)Nc2cc3c(cn2)c(-c2ccc(CN4CCN(C5CC5)CC4)o2)nn31 (centres unmarked) [(87)],< 10 nM,10 to 100 nM,100 to 1000 nM,< 10 nM,10 to 100 nM,< 10 nM,10 to 100 nM
C[C@H]1CCOc2c(cnn2C)-c2nccc(n2)Nc2cc3c(cn2)c(-c2cc(CN4CCOCC4)n(C)n2)nn31 [(105)],< 10 nM,< 10 nM,≥ 1000 nM,< 10 nM,10 to 100 nM,< 10 nM,< 10 nM
Cc1nc(-c2nn3c4cc(ncc24)Nc2ccnc(n2)-c2cnn(C)c2OCC[C@@H]3C)sc1CN(C)C [(171)],10 to 100 nM,< 10 nM,100 to 1000 nM,< 10 nM,10 to 100 nM,< 10 nM,10 to 100 nM
C[C@H]1CCOc2c(cnn2C)-c2nccc(n2)Nc2cc3c(cn2)c(N2CC[C@@H](N(C)CCF)C2)nn31 [(179)],< 10 nM,< 10 nM,100 to 1000 nM,< 10 nM,10 to 100 nM,< 10 nM,< 10 nM
CCCN(C)Cc1ccc(-c2nn3c4cc(ncc24)Nc2ccnc(n2)-c2cnn(C)c2OCC[C@@H]3C)n1C [(138)],< 10 nM,< 10 nM,100 to 1000 nM,< 10 nM,< 10 nM,< 10 nM,< 10 nM
"Cn1ncc2c1OCCC(C)(C)n1nc(N3CCC3)c3cnc(cc31)Nc1ccnc-2n1 [(4), 19-(azetidin-1-yl)-11,16,16-trimethyl-13-oxa-2,6,10,11,17,18,22,25-octazapentacyclo[15.5.2.1^3,7.0^8,12.0^20,24]pentacosa-1(22),3,5,7(25),8(12),9,18,20,23-nonaene]",100 to 1000 nM,100 to 1000 nM,≥ 1000 nM,< 10 nM,100 to 1000 nM,< 10 nM,100 to 1000 nM
CCN(CC)CCOc1ccc(C)c(-c2nn3c4cc(ncc24)Nc2ccnc(n2)-c2cnn(C)c2OCC[C@@H]3C)c1 [(159)],100 to 1000 nM,100 to 1000 nM,100 to 1000 nM,10 to 100 nM,100 to 1000 nM,10 to 100 nM,100 to 1000 nM
CN1CCN(C(=O)C2CCN(c3nn4c5cc(ncc35)Nc3ccnc(n3)-c3cnn(C)c3OCCC4)C2)CC1 (centres unmarked) [(66)],100 to 1000 nM,10 to 100 nM,≥ 1000 nM,< 10 nM,100 to 1000 nM,< 10 nM,100 to 1000 nM
CCn1cc(-c2nn3c4cc(ncc24)Nc2ccnc(n2)-c2cnn(C)c2OCC[C@@H]3C)cc1CN1CCN(C2CC2)CC1 [(126)],< 10 nM,< 10 nM,100 to 1000 nM,< 10 nM,< 10 nM,< 10 nM,< 10 nM
Cn1ncc2c1OCCCn1nc(N3CCC3)c3cnc(cc31)Nc1ccnc-2n1 [(3)],100 to 1000 nM,10 to 100 nM,100 to 1000 nM,< 10 nM,100 to 1000 nM,< 10 nM,10 to 100 nM
CCN(CC)CCOc1cccc(-c2nn3c4cc(ncc24)Nc2ccnc(n2)-c2cnn(C)c2OCC[C@@H]3C)c1C [(158)],100 to 1000 nM,100 to 1000 nM,100 to 1000 nM,< 10 nM,100 to 1000 nM,< 10 nM,100 to 1000 nM
C[C@H]1CCOc2c(cnn2C)-c2nccc(n2)Nc2cc3c(cn2)c(-c2cnc(CN4CCN(C)CC4)s2)nn31 [(106)],10 to 100 nM,< 10 nM,100 to 1000 nM,< 10 nM,< 10 nM,< 10 nM,10 to 100 nM

# Reference: US20230148005A1, “MACROCYCLIC COMPOUNDS AND USES THEREOF” (THESEUS PHARMACEUTICALS, INC., priority 2020, published 2023)
